Patent US20070099826A1, “Treatment of diseases associated with the egr-1 enhancer element” (priority 2003, published 2007)

Tests used:
APO A1 protein [1] = test: Immunofluorescence staining of APO A1 protein in CaCo2 cells; format: cell-based, human; details: 5 and 10 μM, 36 hours of treatment
Description: (§1) Human hepatoblastoma cells (HepG2) and intestinal cells (CaCo2) were obtained from the American Type Culture Collection (Rockville, Md.). Cells were grown in Minimum Essential Medium (MEM) (Gibco) supplemented with 2 mM glutamine, MEM vitamin solution and 10% fetal bovine serum (FBS) for HepG2 and 20% FBS (Gibco) for CaCo2 cells. All cells were incubated in a 95% air/5% CO2 atmosphere.
(§2) The CaCo2 or HepG2 cells were grown in the defined media and, for promoter assay studies, transfected with the reporter construct of interest. Cells were then left in serum-free media for 8-12 hours after which time resveratrol was added to media to give a final concentration of the agent as stated in the figure legends. The cells were exposed to the agent for varying periods of time, harvested and then the parameter of interest, either APO A1 protein or promoter activity, was assayed.
HepG2 and CaCo2 cells were grown on cover slips. Cover slips on which CaCo2 cells were grown were also coated with fibronectin (Calbiochem). […] The FITC-labeled ApoA1 peptide in cells was visualized using a Zeiss fluorescence microscope (Zeiss, Dusseldorf, Germany) with FITC excitation and emission wavelengths of 488 and 520 nm. […]

[2] = test system: human APO A1 promoter from −474 to −7; test: APO A1 promoter activity, pA1.474-Luc reporter transiently transfected in CaCo2 cells; format: cell-based
Description: (§3) The plasmids created for the studies contained the human APO A1 promoter from −474, −375, −325, −235, −190 to −170 fused to the firefly luciferase gene in the vector, pGL3 (Promega). Insertion of the promoter DNA was verified by nucleotide sequence analysis. Plasmid DNA was prepared from bacteria containing the desired clone and isolated using Qiagen kits according to manufacturer's instructions and used in the tansfection studies or to create a stable cell line.
as §2
(§4) For transient transfections cells were seeded onto six well plates and grown to 30-40% confluence, The cells were then transfected using 5 μl of Superfect (Qiagen) and up to one microgram of the plasmid of interest in 100 μl of serum and antibiotic free MEM. The solution was incubated for 10 minutes at room temperature. Media was then removed from the cells to be transfected and 1 ml of media was added to the DNA-Superfect mixture before being applied to the cells. The cells were then exposed to the DNA for 2 hours at 37° C./5% CO2 and then the media containing DNA was removed and replaced with serum free MEM media allowed to grow over night prior to harvest.
Cells were transfected with Luciferase plasmid of interest (see above) and left to recover overnight in serum poor media. […] Luciferase activity was then determined and expressed relative to the protein concentration of that sample.
Next the CaCo2 cells were exposed to varying concentrations of resveratrol from 0 to 15 μM. […] At the end of the treatment, the cells were harvested and the Luc-activity measured. […]

APO A1 promoter [3] = test: APO A1 promoter deletion constructs fused to Luc, transient transfection in CaCo2 cells; format: cell-based, human; details: 5 μM, minimum of 16 hours
Description: as §3, §4
(§5) Cells were transfected with Luciferase plasmid of interest (see above) and left to recover overnight in serum poor media. These cells or those that were permanently transfected with the luciferase promoter were then treated with varying concentrations of resveratrol for stated periods of time. As above, RSV-beta-Gal was co-transfected as a control to normalize for DNA uptake. Cells were then harvested and suspended in reporter lysis buffer (Promega). A 10 μl aliquot of this lysate was used for determination of luciferase activity, and 5 μl were used for total protein determination (Bradford Assay, Bio-Rad reagent). Luciferase activity was then determined and expressed relative to the protein concentration of that sample.
In order to identify the potential motif(s), separate constructs containing progressively smaller amounts of APO A1 DNA were fused to the Luc gene. The activity of each construct was tested by transient transfection assay in CaCo2 cells and than treated with 5 μM resveratrol for a minimum of 16 hours. […] The number at the bottom of each set of columns denotes the 5′ location of the fragment and the 3′ end is common to all deletional clones at −7. […] In contrast, further deletion with the remaining −170 to −7 fragment of the promoted abolished the resveratrol induction of the promoter. We discovered the resveratrol responsive motif in the APO A1 DNA must span nucleotides −190 to −170.

APO A1 protein [4] = test: Western blot of APO A1 protein in spent media from CaCo2 cells; format: cell-based, human; details: 5 or 10 p,M, 36 hours
Description: (§6) Media or cells were harvested from untreated and treated HepG2/CaCo2 culture dishes at various time points and stored at −80° C. when required. For experiments in which media was collected for western blotting, cells from these dishes were trypsinized (Gibco) and a 100 μl sample of cells was used to determine the percentage of dead cells by counting live/dead cell ratios using […] staining. The remaining cells were then assessed for total DNA content using method described by Maniatis, (Cloning Manual). DNA content per dish was then utilized along with ratio of live/dead cells to normalize the amount of media to be separated by polyacrylamide gel electrophoresis. For experiments requiring western blot of whole cell lysates, cells were harvested and lysed using reporter lysis reagent (Promega) and cell debris was spun down at 13,000 rpm for 5 minutes. […]
This to experiment sought to measure whether resveratrol stimulation of transcriptional activity of the promoter in the CaCo2 cells increased the abundance of the APO A1 protein, ultimately responsible for the antiatherogenic activity of the gene. […] Longer exposure of the cells to resveratrol was utilized to allow adequate time for the APO A1 protein to be secreted into the media from the CaCo2 cells, and detected. […]

APO A1 protein [5] = test: Immunofluorescence staining of APO A1 protein in Hep G2 cells; format: cell-based, human; details: 5 or 10 μM
Description: as §1
The CaCo2 or HepG2 cells were grown in the defined media and, for promoter assay studies, transfected with the reporter construct of interest. Cells were then left in serum-free media for 8-12 hours after which time resveratrol was added to media to give a final concentration of the agent as stated in the figure legends. […]
HepG2 and CaCo2 cells were grown on cover slips. […] The FITC-labeled ApoA1 peptide in cells was visualized using a Zeiss fluorescence microscope (Zeiss, Dusseldorf, Germany) with FITC excitation and emission wavelengths of 488 and 520 nm. […]
Since the APO A1 gene is expressed in both liver and small intestine, the following studies examine the ability of resveratrol to affect expression of the gene in liver cells. […] Hep G2 cells were viewed under phase contrast or fluorescence microscopy following treatment with or without resveratrol and immunostaining for their content of APO A1 protein.

APO A1 promoter [6] = test: APO A1 promoter activity, pA1.474-Luc reporter transiently transfected in Hep G2 cells; format: cell-based, human
Description: as §3, §2, §4
Cells were transfected with Luciferase plasmid of interest (see above) and left to recover overnight in serum poor media. These cells or those that were permanently transfected with the luciferase promoter were then treated with varying concentrations of resveratrol for stated periods of time. As above, RSV-beta-Gal was co-transfected as a control to normalize for DNA uptake. […] Luciferase activity was then determined and expressed relative to the protein concentration of that sample. […]

APO A1 promoter [7] = test: APO A1 promoter activity, Hep G2 cells permanently transfected with pA1.474-Luc; format: cell-based, human; details: 10 μM resveratrol
Description: HepG2 cells were also permanently transfected with 474-luciferase using a co-transfection method. Hep G2 cells are grown in MEM (Gibco) and 10% fetal calf serum (Gibco) and then co-transfected with 474-Luc along with another plasmid that carries neomycin resistance.
as §5
To assay for promoter activity in Hep G2 cells, the reporter construct pA1.474-Luc was inserted into the human hepatoma, Hep G2, cells along with pRSV-β-galactosidase as a monitor for transfection efficiency using conventional molecular biology techniques as later described. The transfected cells were exposed to varying concentrations of resveratrol from 0 to 100 μM for 16 hours. […]

APO A1 protein [8] = test: Western blot of APO A1 protein in spent media from Hep G2 cells; format: cell-based, human; details: 5 or 10 p,M, 36 hours
Description: as §6, with “minutes. An aliquot of the supernatant was then used to determine amount of protein per samples were using Bradford assay (Rio-Rad reagent). Equal amounts of protein from all samples were then separated by polyacrylamide gel electrophoresis as was done with media.” for “minutes.”
To measure whether resveratrol stimulation of the APO A1 promoter in the Hep G2 cells also increases the abundance of the protein, APO A1 secreted into the media was assessed following treatment with the compound. […]

## Oc1ccc(/C=C/c2cc(O)cc(O)c2)cc1 [resveratrol, trans-3,5,4′-trihydroxystilbene]
APO A1 protein [1]
  abundance of APO A1 signal (immunohistochemical staining): increase in the abundance of APO A1 signal
[2]; 5 μM, time points 4 to 24 hours
  optimal time point for stimulatory effect on APO A1 promoter: around 16 hours
[2]; 16 hours, resveratrol 5 to 7.5 μM
  maximal stimulation of APO A1 promoter activity (Luc-activity): 2.5 fold
[2]; 16 hours, tested 0 to 15 μM
  resveratrol concentration causing maximal stimulation of APO A1 promoter activity: 5 to 7.5 µM
APO A1 promoter [3]
  increase in promoter activity, −190 to −7 fragment: 2.5 fold
  increase in promoter activity, −235 to −7 fragment: 2.5 fold
  induction of promoter activity, full-length (−474 to −7) promoter: 2.5 fold
  induction of promoter, −170 to −7 fragment: abolished
APO A1 protein [4]
  abundance of APO A1 protein in spent media (western blot): marked increase
APO A1 protein [5]
  fluorescence for APO A1 signal (immunostaining): increase in fluorescence
APO A1 promoter [6]; 16 hours
  concentration at which resveratrol becomes inhibitory on APO A1 promoter activity: ≥ 50 µM
APO A1 promoter [6]; 16 hours, 5 to 10 μM resveratrol
  increase in Luc-activity (APO A1 promoter): 3 fold
APO A1 promoter [6]; 16 hours, 15, 25, 50, 75 or 100 μM
  decrease in Luc-activity: 50%
APO A1 promoter [7]
  maximal increase of Luc-activity: 4 fold
APO A1 protein [8]
  abundance of APO A1 protein in spent media (western blot): marked increase
